Experimental data from patent publication US12098433B2 (priority 2018, dated 2024).
“Also recorded” adds a separate entry of the source. Like-named read-outs stand apart in the source and are kept apart here.

Experiments:
[1] = test system: unregulated cell-free protein synthesis reaction (cell-free transcription and translation); assay type: biochemical, E. coli
[2] = test system: atzR (via atzABC conversion of atrazine to cyanuric acid); assay type: biochemical, E. coli extracts; Pseudomonas ADP-1 pathway; conditions: for time at which ON is distinguished from OFF (kinetic divergence): 100 μM atrazine; for sensor response to triazines (specificity): FIG. 19C
[3] = test system: atzR (via atzABC conversion of atrazine to cyanuric acid); assay: Colorimetric atrazine sensor (C23O reporter), freeze-dried reactions; assay type: biochemical, E. coli extracts; Pseudomonas ADP-1 pathway
[4] = test system: AtzR transcription factor; assay: Cell-free cyanuric acid sensor: AtzR-regulated sfGFP reporter; assay type: biochemical, Pseudomonas sp. ADP-1; conditions: for fold-induction of sfGFP: 100 μM
[5] = test system: AtzR transcription factor; assay: Cell-free cyanuric acid sensor with colorimetric catechol 2,3-dioxygenase reporter; assay type: biochemical, Pseudomonas sp. ADP-1; conditions: 600 μM CYA in ON state; tubes with catechol at 30° C.
Description: FIG. 18. Proof-of-concept for field-deployable cyanuric acid sensing using a cell-free biosensor. (a) Optimized cell-free reactions are prepared without cyanuric acid (CYA), freeze-dried, and then rehydrated with unfiltered environmental water samples. (b) CYA in environmental water samples can be detected from freeze-dried cell-free reactions. […] (c) Time course comparisons of the OFF state from panel B, for the unfiltered environmental water samples that were not spiked with CYA. Pool water can be distinguished against lake water in less than one hour. […] CYA was added at a concentration of 600 μM in the ON state to a fresh cell-free reaction incubated at 30° C. and monitored for 90 minutes. […] Fluorescence in b and c is reported standardized to mean equivalent fluorescence (MEF) of fluorescein isothiocyanate based on a previously developed standard.
Finally, we aimed to validate if a visible output signal for the sensor could be generated without a plate reader to enable equipment-free detection of CYA from environmental samples. […] Because fluorescence of sfGFP is difficult to detect by the unaided eye, particularly in the early stages of the reaction, we replaced the coding sequence of the reporter plasmid instead with the enzyme catechol 2,3-dioxygenase (C23DO). […]

[6] = test system: NarX / NarL two-component system; conditions: colorimetric C32O reporter
[7] = test system: NarX / NarL two-component system

CCNc1nc(Cl)nc(NC(C)C)n1 [atrazine]
poisoning / inhibitory effect on cell-free protein synthesis (sfGFP) ([1]; 100 μM): Minimal poisoning
calculated limit of detection above background [2]: approximately 20 μM
time at which ON is distinguished from OFF (kinetic divergence) ([2]; optimized sensor): approximately one hour
time at which ON is distinguished from OFF (kinetic divergence) ([2]; optimized sensor, listed as Atrazine): within one hour
sensor response to triazines (specificity) [2]: capable of detecting
detection by sensor ([2]; doped at 100 μM, all enriched extracts plus blank extract): could detect
overall limit of detection (figure legend) ([2]; optimized sensor, dose-response curve FIG. 22E): around 20
EC50 ([2]; read-out: half-maximal signal): ~66 µM
reactions changing color ([3]; 100 nM atrazine, three replicates, four-hour limit): one of the three reactions
limit of detection for the enzymatic reporter ([3]; freeze-dried, all three replicates turned on within four-hour limit): 1

O=c1[nH]c(=O)[nH]c(=O)[nH]1 [cyanuric acid]
sensor response to triazines (specificity) [2]: capable of detecting
fold-induction of sfGFP ([4]; optimal 1 nM AtzR plasmid and 10 nM reporter plasmid, 4-hour incubation): > 12 fold
fold-induction of sfGFP ([4]; reporter based on Promoter P2 (E. coli consensus −10 site), promoter screen): ~8 fold
linear operating range of dose-response ([4]; optimal plasmid concentrations): 0 to 100 µM
time to production of yellow color (reporter activation) [5]: ≤ 1 h

Nc1nc(N)nc(N)n1 [melamine]
poisoning / inhibitory effect on cell-free protein synthesis (sfGFP) ([1]; 100 μM): Minimal poisoning
sensor response to triazines (specificity) [2]: unreactive

O=[N+]([O-])O [nitrate]
lowest concentration detected, visible by naked eye [6]: 10 µM
sensor activation ([7]; 1 mM nitrate, absence of supplemental NarX): activated
detection by sensor ([7]; 1 mM nitrate, certain ratios of NarX- and NarL-enriched extracts): robust detection
sensitivity of cell-free system ([7]; optimal conditions, sfGFP reporter): more sensitive than the environmental limit

CC(C)Nc1nc(Cl)nc(NC(C)C)n1 [propazine]
poisoning / inhibitory effect on cell-free protein synthesis (sfGFP) [1]: Minimal poisoning
sensor response to triazines (specificity) [2]: weak activation; also recorded: capable of detecting
